In ChEMBL document CHEMBL4219032, “Triple Reuptake Inhibitors as Potential Therapeutics for Depression and Other Disorders: Design Paradigm and Developmental Challenges” (J Med Chem, 2018):

Columns and labels:
[1] = biological target: T1, Sodium-dependent noradrenaline transporter (Homo sapiens, UniProt P23975)
Description: Binding affinity to NET (unknown origin)

[2] = biological target: T2, Sodium-dependent serotonin transporter (Homo sapiens, UniProt P31645)
Description: Binding affinity to SERT (unknown origin)

[3] = biological target: T3, Sodium-dependent dopamine transporter (Homo sapiens, UniProt Q01959)
Description: Binding affinity to DAT (unknown origin)

[4] = biological target: Sodium-dependent dopamine transporter (Rattus norvegicus, UniProt P23977); assay: Inhibition of rat brain DAT assessed as reduction of [3H]-DA re-uptake preincubated for 30 mins followed by [3H]-DA addition measured after 5 mins by scintillation counting
[5] = biological target: Sodium-dependent serotonin transporter (Rattus norvegicus, UniProt P31652); assay: Inhibition of rat brain SERT assessed as reduction of [3H]5-HT re-uptake preincubated for 30 mins followed by [3H]5-HT addition measured after 5 mins by scintillation counting
[6] = biological target: Norepinephrine transporter (Rattus norvegicus, UniProt Q9WTR4); assay: Inhibition of rat brain NET assessed as reduction of [3H]-NE re-uptake preincubated for 30 mins followed by [3H]-NE addition measured after 5 mins by scintillation counting
[7] = biological target: T2, Sodium-dependent serotonin transporter; assay: Inhibition of human SERT expressed in CHO cells assessed as reduction of [3H]-5-HT re-uptake preincubated for 10 mins followed by [3H]-5-HT addition measured after 10 mins by liquid scintillation counting; format: cell-based
[8] = biological target: T3, Sodium-dependent dopamine transporter; assay: Inhibition of human DAT expressed in CHO cells assessed as reduction of [3H]-DA re-uptake preincubated for 10 mins followed by [3H]-DA addition measured after 10 mins by liquid scintillation counting; format: cell-based
[9] = biological target: T1, Sodium-dependent noradrenaline transporter; assay: Inhibition of human NET expressed in CHO cells assessed as reduction of [3H]-NE re-uptake preincubated for 10 mins followed by [3H]-NE addition measured after 10 mins by liquid scintillation counting; format: cell-based
[10] = Tmax in human at 9 mg; format: ADME, organism-based; conditions: in vivo
Homo sapiens [11] = assay: Anti-obesity activity in human assessed as body weight loss at 1 mg/kg, po administered for 6 months relative to control; format: functional
Homo sapiens [12] = assay: Anti-obesity activity in human assessed as body weight loss at […], po administered for 6 months relative to control; format: functional
Homo sapiens [13] = assay: In vivo receptor occupancy at DAT in human brain at 0.125 to 0.5 mg, iv via bolus dosing measured at 3 hrs post dose by PET analysis; format: functional
Homo sapiens [14] = assay: Anti-obesity activity in human assessed as body weight loss at 0.5 mg/kg, po administered for 6 months relative to control; format: functional
[15] = biological target: T2, Sodium-dependent serotonin transporter; assay: Inhibition of SERT (unknown origin)-mediated uptake
[16] = biological target: T3, Sodium-dependent dopamine transporter; assay: Inhibition of DAT (unknown origin)-mediated uptake
[17] = biological target: T1, Sodium-dependent noradrenaline transporter; assay: Binding affinity to human NET
[18] = biological target: T3, Sodium-dependent dopamine transporter; assay: Binding affinity to human DAT
[19] = biological target: T2, Sodium-dependent serotonin transporter; assay: Binding affinity to human SERT
[20] = Ratio of drug level in human brain to plasma at 30 mg administered qd for 3 days followed by 60 mg administration at qd for next 11 days measured on day 14 post last dose by LC-MS/MS analysis; format: ADME; conditions: read-out: BPR
[21] = Half life in human cerebrospinal fluid at 30 mg administered qd for 3 days followed by 60 mg administration at qd for next 11 days measured on day 14 post last dose by LC-MS/MS analysis; format: ADME, tissue-based
[22] = Tmax in human plasma at 30 mg administered qd for 3 days followed by 60 mg administration at qd for next 11 days measured on day 14 post last dose by LC-MS/MS analysis; format: ADME, organism-based
Homo sapiens [23] = assay: In vivo receptor occupancy at SERT in human at 2 mg/day by PET imaging method; format: functional
Homo sapiens [24] = assay: In vivo receptor occupancy at DAT in human at 2 mg/day by PET imaging method; format: functional
Homo sapiens [25] = assay: In vivo receptor occupancy at DAT in human at 1 mg/day by PET imaging method; format: functional
Homo sapiens [26] = assay: In vivo receptor occupancy at SERT in human at 1 mg/day by PET imaging method; format: functional
[27] = biological target: T2, Sodium-dependent serotonin transporter; assay: biochemical; format: cell-based, HEK293
Description: Binding affinity to human SERT expressed in HEK293 cells after 60 mins in presence of [3H]imipramine by liquid scintillation counting

[28] = biological target: T1, Sodium-dependent noradrenaline transporter; assay: Binding affinity to human NET expressed in HEK293 cells after 60 mins in presence of [3H]imipramine by liquid scintillation counting; format: cell-based
[29] = biological target: T3, Sodium-dependent dopamine transporter; assay: Binding affinity to human DAT expressed in HEK293 cells after 60 mins in presence of […] by liquid scintillation counting; format: cell-based
Rattus norvegicus [30] = assay: In vivo receptor occupancy at NET in ip dosed rat brain measured 60 mins post dose; format: functional; conditions: 1 h
Rattus norvegicus [31] = assay: In vivo receptor occupancy at SERT in ip dosed rat brain measured 60 mins post dose; format: functional; conditions: 1 h
Rattus norvegicus [32] = assay: In vivo receptor occupancy at DAT in ip dosed rat brain measured 60 mins post dose; format: functional; conditions: 1 h
[33] = biological target: T3, Sodium-dependent dopamine transporter; assay: Inhibition of human DAT expressed in HEK cells assessed as reduction of [3H]-DA uptake preincubated for 10 mins followed by […] measured after 10 mins by scintillation counting method; format: cell-based
[34] = biological target: T2, Sodium-dependent serotonin transporter; assay: Inhibition of human SERT expressed in HEK cells assessed as reduction of [3H]5-HT uptake preincubated for 10 mins followed by [3H]5-HT addition measured after 10 mins by scintillation counting method; format: cell-based
[35] = biological target: T1, Sodium-dependent noradrenaline transporter; assay: Inhibition of human NET expressed in HEK cells assessed as reduction of [3H]-NE uptake preincubated for 10 mins followed by […] measured after 10 mins by scintillation counting method; format: cell-based

T2 sequence (P31645 whole entry): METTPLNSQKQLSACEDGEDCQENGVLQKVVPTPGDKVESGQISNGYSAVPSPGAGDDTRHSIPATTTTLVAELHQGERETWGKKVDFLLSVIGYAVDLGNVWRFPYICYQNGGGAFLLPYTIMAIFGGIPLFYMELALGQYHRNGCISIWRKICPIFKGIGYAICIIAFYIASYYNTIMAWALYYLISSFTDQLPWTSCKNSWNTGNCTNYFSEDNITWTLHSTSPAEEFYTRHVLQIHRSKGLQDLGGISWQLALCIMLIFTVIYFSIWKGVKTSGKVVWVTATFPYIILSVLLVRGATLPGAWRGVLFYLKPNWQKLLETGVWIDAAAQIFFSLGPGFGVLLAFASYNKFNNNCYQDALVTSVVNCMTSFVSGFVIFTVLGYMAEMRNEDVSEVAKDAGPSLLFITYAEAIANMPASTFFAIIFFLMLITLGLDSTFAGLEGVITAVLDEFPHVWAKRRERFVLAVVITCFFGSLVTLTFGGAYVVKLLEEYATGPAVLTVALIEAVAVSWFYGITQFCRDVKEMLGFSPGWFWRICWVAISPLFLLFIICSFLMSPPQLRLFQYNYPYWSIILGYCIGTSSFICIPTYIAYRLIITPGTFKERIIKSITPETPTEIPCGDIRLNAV
T1 sequence (P23975 whole entry): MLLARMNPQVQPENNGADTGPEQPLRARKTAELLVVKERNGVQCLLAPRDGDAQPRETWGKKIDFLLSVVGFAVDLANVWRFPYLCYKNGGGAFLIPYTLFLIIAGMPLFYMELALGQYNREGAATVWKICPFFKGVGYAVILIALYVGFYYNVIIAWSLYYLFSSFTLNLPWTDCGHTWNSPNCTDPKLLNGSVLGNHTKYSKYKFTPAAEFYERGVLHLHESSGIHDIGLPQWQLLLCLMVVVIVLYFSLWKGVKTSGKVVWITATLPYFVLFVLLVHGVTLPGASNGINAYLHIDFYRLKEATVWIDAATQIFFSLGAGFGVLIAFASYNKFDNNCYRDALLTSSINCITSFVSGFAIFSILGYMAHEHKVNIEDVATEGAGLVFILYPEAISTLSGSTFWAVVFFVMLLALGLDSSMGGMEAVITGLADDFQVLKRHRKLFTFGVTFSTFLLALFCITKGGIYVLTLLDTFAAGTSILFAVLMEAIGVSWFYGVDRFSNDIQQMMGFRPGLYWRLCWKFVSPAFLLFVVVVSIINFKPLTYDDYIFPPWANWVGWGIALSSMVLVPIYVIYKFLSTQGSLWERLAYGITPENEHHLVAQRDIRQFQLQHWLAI
T3 sequence (Q01959 whole entry): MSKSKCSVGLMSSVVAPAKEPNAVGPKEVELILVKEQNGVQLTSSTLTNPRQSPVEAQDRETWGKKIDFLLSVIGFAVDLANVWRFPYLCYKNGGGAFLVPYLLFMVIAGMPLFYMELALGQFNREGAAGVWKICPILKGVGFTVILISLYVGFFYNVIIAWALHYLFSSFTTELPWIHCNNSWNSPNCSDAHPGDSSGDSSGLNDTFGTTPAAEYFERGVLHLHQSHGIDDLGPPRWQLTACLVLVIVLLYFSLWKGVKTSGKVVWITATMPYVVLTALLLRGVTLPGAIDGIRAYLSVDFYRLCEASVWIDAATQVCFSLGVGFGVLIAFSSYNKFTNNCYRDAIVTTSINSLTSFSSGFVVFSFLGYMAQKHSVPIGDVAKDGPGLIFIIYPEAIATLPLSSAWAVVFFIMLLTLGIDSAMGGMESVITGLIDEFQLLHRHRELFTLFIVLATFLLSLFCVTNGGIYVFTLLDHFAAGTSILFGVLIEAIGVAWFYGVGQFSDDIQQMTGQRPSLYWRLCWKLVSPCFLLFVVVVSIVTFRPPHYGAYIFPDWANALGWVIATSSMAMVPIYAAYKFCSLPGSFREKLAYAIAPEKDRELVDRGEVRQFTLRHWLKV
Sodium-dependent serotonin transporter (Rattus norvegicus, UniProt P31652), sequence (P31652 whole entry): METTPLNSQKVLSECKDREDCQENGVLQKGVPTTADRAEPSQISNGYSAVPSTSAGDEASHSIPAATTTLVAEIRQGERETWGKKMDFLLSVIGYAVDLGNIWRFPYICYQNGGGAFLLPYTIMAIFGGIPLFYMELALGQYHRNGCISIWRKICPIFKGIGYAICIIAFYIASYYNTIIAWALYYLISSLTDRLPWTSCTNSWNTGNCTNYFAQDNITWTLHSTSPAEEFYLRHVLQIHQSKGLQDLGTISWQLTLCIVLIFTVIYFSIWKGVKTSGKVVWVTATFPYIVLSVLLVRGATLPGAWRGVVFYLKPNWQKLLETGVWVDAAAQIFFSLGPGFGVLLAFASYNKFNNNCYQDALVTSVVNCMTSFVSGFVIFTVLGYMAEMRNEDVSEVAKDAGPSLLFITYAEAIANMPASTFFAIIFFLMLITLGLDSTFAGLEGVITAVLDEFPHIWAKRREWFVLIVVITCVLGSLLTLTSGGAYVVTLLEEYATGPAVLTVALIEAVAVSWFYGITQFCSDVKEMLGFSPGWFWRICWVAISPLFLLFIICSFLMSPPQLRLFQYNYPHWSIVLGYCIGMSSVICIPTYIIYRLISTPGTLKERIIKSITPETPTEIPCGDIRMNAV
Sodium-dependent dopamine transporter (Rattus norvegicus, UniProt P23977), sequence (P23977 whole entry): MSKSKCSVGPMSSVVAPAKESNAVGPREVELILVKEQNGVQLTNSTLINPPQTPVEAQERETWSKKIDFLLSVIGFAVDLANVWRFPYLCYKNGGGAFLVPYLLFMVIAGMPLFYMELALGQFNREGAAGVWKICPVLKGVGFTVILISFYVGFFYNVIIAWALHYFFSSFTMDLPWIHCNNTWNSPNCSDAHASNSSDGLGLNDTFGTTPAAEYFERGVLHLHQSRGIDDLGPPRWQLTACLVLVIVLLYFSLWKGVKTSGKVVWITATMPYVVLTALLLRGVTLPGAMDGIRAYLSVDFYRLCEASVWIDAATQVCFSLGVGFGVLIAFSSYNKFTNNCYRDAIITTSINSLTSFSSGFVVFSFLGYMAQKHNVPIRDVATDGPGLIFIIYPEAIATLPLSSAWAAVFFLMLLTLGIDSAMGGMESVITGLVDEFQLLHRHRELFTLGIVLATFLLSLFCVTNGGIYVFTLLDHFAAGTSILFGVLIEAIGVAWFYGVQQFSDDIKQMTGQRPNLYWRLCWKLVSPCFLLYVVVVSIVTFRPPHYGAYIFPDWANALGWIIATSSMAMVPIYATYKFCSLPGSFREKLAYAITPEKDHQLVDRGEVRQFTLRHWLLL
Norepinephrine transporter, sequence (Q9WTR4 whole entry): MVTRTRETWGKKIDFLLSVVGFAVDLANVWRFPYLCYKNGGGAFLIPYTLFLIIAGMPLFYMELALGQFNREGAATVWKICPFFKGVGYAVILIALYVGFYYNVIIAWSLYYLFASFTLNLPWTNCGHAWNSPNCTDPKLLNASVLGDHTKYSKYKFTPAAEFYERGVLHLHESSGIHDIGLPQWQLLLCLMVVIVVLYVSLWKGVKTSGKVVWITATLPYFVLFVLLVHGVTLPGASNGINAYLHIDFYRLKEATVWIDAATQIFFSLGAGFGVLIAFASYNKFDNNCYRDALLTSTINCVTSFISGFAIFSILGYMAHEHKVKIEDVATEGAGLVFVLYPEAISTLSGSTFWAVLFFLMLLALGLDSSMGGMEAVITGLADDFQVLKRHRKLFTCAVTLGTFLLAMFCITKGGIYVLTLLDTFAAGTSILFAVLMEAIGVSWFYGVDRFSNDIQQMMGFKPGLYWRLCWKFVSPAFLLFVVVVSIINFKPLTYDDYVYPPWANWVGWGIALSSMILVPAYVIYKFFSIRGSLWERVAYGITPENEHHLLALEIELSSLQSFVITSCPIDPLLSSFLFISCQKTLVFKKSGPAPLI

C#Cc1ccc([C@@H]2CN3CCC[C@@H]3c3ccccc32)cc1
Ki [1]: 0.0041 µM
Ki [2]: 0.00027 µM
Ki [3]: 0.0016 µM

COC(=O)[C@H]1CN(C)CC[C@@H]1c1ccc(Cl)cc1
IC50 [4]: 0.233 µM
IC50 [5]: 8.49 µM
IC50 [6]: 0.252 µM

CN(C)CC(c1ccc(OC(=O)c2ccccc2)cc1)C1(O)CCCCC1 (stereo not drawn)
IC50 [7]: 0.105 µM
IC50 [8]: 0.813 µM
IC50 [9]: 0.644 µM

CCOC[C@H]1[C@@H](c2ccc(Cl)c(Cl)c2)C[C@@H]2CC[C@H]1N2C
Tmax [10]: 6 h
Activity (Homo sapiens [11]): 10.6%
Activity (Homo sapiens [12]): 4.5%
IC50 [1]: 0.0032 µM
IC50 [2]: 0.011 µM
Occ (Homo sapiens [13]): 18 - 77%
IC50 [3]: 0.008 µM
Activity (Homo sapiens [14]): 9.2%

C[C@]1(O)CC[C@](CN)(c2ccc(Cl)c(Cl)c2)CC1
IC50 [15]: 1.19 µM
IC50 [16]: 0.518 µM

Clc1ccc(C2CCNCC23COC3)cc1Cl (stereo not drawn)
Ki [17]: 0.158 µM
Ki [18]: 0.158 µM
Ki [19]: 0.0631 µM

CN1Cc2c(N)cccc2C(c2ccc(Cl)c(Cl)c2)C1 (stereo not drawn)
Ki [1]: 0.0088 µM
Ki [2]: 0.0103 µM
Ki [3]: 0.0109 µM

CN(C)C[C@]1(c2ccc(Cl)c(Cl)c2)CC[C@@](C)(O)CC1
Kp at 14 day [20]: 0.22
half-life [21]: 18 h
IC50 [2]: 0.034 µM
IC50 [3]: 0.041 µM
IC50 [15]: 0.034 µM
Tmax [22]: 4 h
IC50 [16]: 0.041 µM

CNC[C@]1(c2ccc(Cl)c(Cl)c2)CC[C@](C)(O)CC1
Kp at 14 day [20]: 0.46
half-life [21]: 32 h
IC50 [15]: 0.21 µM
Tmax [22]: 6 h
IC50 [16]: 0.071 µM

COC[C@H]1[C@@H](c2ccc(Cl)c(Cl)c2)C[C@@H]2CC[C@H]1N2C
Occ (Homo sapiens [23]): 75%
Occ (Homo sapiens [24]): 80%
IC50 [1]: 0.002 µM
IC50 [2]: 0.01 µM
Occ (Homo sapiens [25]): 60%
IC50 [3]: 0.01 µM
Occ (Homo sapiens [26]): 55%

COC[C@@H]1CN[C@@H]2CC[C@@]1(c1ccc(Cl)c(Cl)c1)C2
Ki [17]: 0.00631 µM
Ki [18]: 0.0794 µM
Ki [19]: 0.0316 µM

Clc1ccc([C@@H]2CCN[C@@H]3CCOC[C@@H]32)cc1Cl
Ki [17]: 0.0501 µM
Ki [18]: 0.0398 µM
Ki [19]: 0.0316 µM

COC[C@H]1CN[C@@H]2CC[C@@]1(c1ccc(Cl)c(Cl)c1)C2
Ki [17]: 0.00316 µM
Ki [18]: 0.00501 µM
Ki [19]: 0.01 µM

CNC[C@H](c1ccc2ccccc2c1)[C@H](O)c1ccccc1
Ki [27]: 0.0021 µM
Ki [28]: 0.0015 µM
Ki [29]: 0.061 µM

Clc1ccc([C@]23CNCC2C3)cc1Cl (stereo partly drawn)
ED50 (Rattus norvegicus [30]): 2 mg/kg
ED50 (Rattus norvegicus [31]): 0.5 mg/kg
ED50 (Rattus norvegicus [32]): 49 mg/kg

c1ccc2cc([C@]34CNCC3C4)ccc2c1 (stereo partly drawn)
IC50 [33]: 0.038 µM
IC50 [34]: 0.084 µM
IC50 [35]: 0.006 µM

COC[C@@H]1CN[C@H]2CC[C@]1(c1ccc(Cl)c(Cl)c1)C2
Ki [17]: 0.00141 µM
Ki [18]: 0.00575 µM
Ki [19]: 0.00209 µM

C#Cc1ccc([C@H]2CN3CCC[C@H]3c3ccccc32)cc1
Ki [1]: 0.227 µM
Ki [2]: 0.0158 µM
Ki [3]: 0.0743 µM
